Reference: PMC9775177, “NLRP3-Inflammasome Inhibition with IZD334 Does Not Reduce Cardiac Damage in a Pig Model of Myocardial Infarction” (Biomedicines, 2022)
“And” between values parts separate entries of the source, which are not always exact repeats. Identical values can stand only once.

Columns and labels:
[1] = system: pig model of myocardial infarction; assay: In vivo MI study: cardiac volumes and function by cardiac magnetic resonance; set-up: species or system pigs; details: CMR, 10 mg/kg IV loading dose, 7 days after MI
Procedure: Oral treatment was continued for six days. […] Animals were sacrificed by exsanguination under anesthesia.
Animals were placed on the CMR table in a supine position, under continuous sedation as described above. Steady-state free precession (SSFP) short axis images from the left ventricle (LV) base through the LV apex were used for the quantification of LV volumes, ejection fraction (EF), and mass. Imaging was performed using a respiratory-corrected, cardiac-gated SSFP in sequence. CMR images were anonymized and analyzed offline using MedisSuite (Medis Medical Imaging Systems, version 3.1, Leiden, The Netherlands).

[2] = system: pig model of myocardial infarction; assay: In vivo MI study: serological and histological read-outs; set-up: species or system pigs; details: 1, 3, 10 mg/kg groups
Procedure: Circulating leukocyte numbers at different time points after reperfusion were measured by whole-blood analysis using an automated hematological cell-counter (Cell-Dyn Sapphire, Abbott, Santa Clara, CA, USA). Plasma samples were obtained by whole-blood centrifugation at 1850× g and were immediately stored at −80 °C. C-reactive protein (CRP) levels were measured using solid phase DuoSet sandwich ELISA (DY1707, R&D Systems, Minneapolis, MN, USA) according to the manufacturer’s protocol. Troponin I levels were measured using a clinical chemistry analyzer (AU5811, Beckman Coulter, Woerden, The Netherlands). Histological analysis of collagen, myocardial immune cells, neutrophils, and monocyte infiltration is described in the Appendix A.
Infarcted and border zoned myocardial tissues were collected, and protein was isolated using a Roche protein isolation kit (cOmplete™ Lysis-M EDTA-free, Roche, Basel, Switzerland). IL-1β protein was measured with a Luminex Immunoassay specific for pig IL-1β (ProcartaPlex Pig IL-1β simplex Cat# EXP01A-66048-901 Invitrogen, Thermo Fisher Scientific, MA, USA) and corrected for total protein. For further histological analysis, infarcted and BZ myocardial tissue was processed, paraffin-imbedded, and cut into 5 µm sections after being conserved in 4% paraformaldehyde for 7 days. Cell nuclei were stained using hematoxylin, and area of cell infiltration was counted for each pig in 5 regions close to fibrotic areas in the infarct zone using Olympus CellSens software. Collagen was visualized using Picosirus Red staining (Abcam). The percentage of collagen was quantified using ImageJ software (1.47v).
Neutrophil infiltration in myocardial tissue was quantified in paraffin-embedded histological biopsies that were conserved in 4% formaldehyde for at least 7 days with a monoclonal mouse antibody against porcine neutrophils (Clone PM1, BMA Biomedicals, Augst, Switzerland) for 60 min and secondary incubation with Brightvision Poly-AP-anti-mouse (ImmunoLogic, Duiven, The Netherlands) for 30 min followed by development with liquid permanent red.
Monocyte infiltration was quantified in histological slides of myocardial tissue (paraffin and fresh frozen slides, respectively) using a monoclonal mouse anti-pig antibody against CD107a (Clone JM2E5, Bio-Rad, Kidlington, UK) or a mouse monoclonal antibody against CD14 (Ab23919, Abcam, Cambridge, UK); 60 min of incubation was followed by Brightvision Poly-AP-anti-mouse (ImmunoLogic, Duiven, The Netherlands) for 30 min and development with liquid permanent red.

[3] = system: pig model of myocardial infarction; assay: In vivo MI study: infarct size by Evans Blue TTC double staining; details: 10 mg/kg IV loading dose, 7 days after MI
Procedure: All animal experiments and analyses were performed in a blinded, randomized fashion. Thirty female pigs were subjected to closed-chest LAD coronary artery balloon occlusion for 75 min followed by 7 days of reperfusion. […] The control (PBS) group received an oral placebo. Oral treatment was continued for six days. All pigs underwent transthoracic and three-dimensional transesophageal echocardiography before induction of ischemia and after 7 days. Furthermore, on day 7, cardiac magnetic resonance (CMR) imaging was performed. Subsequently, the LAD was occluded at the exact same site as during infarct induction. After verification of complete vessel occlusion, Evans Blue (E2129, Sigma-Aldrich, St. Louis, MO, USA) solution was infused in the left and right coronary arteries in order to assess the area at risk (AAR). Animals were sacrificed by exsanguination under anesthesia. The heart was excised, cut into 5 slices, and incubated in 1% 2,3,5-triphenyltetrazolium chloride (TTC) (1.08380, Sigma-Aldrich, St. Louis, MO, USA) in 37 degrees 0.9% NaCl for 15 min to discriminate between infarct tissue and viable myocardium. Each slice was photographed at the basal and apical side with a ruler and analyzed with ImageJ software (NIH, Bethesda, MD, USA).

NLRP3-inflammasome = assay: In vitro stimulation of porcine PBMCs with LPS and ATP, IL-1β release; assay type: cell-based; details: porcine PBMCs and whole blood, LPS 1 µg/mL 3 h, then 5 mM ATP 1 h
Procedure: To confirm the ability of IZD334 to effectively attenuate porcine NLRP3-inflammasome signaling, we used a previously standardized study protocol. In short, porcine peripheral blood mononuclear cells (PBMCs) were isolated from healthy porcine animals. Whole blood samples and isolated PBMCs were stimulated with lipopolysaccharide (LPS) (1 µg/mL, L4516, Sigma-Aldrich, St. Louis, MO, USA) and increasing concentrations of IZD334. After three h of incubation, 5 mM adenosine triphosphate (ATP) (A1852, Sigma-Aldrich, St. Louis, MO, USA) was added for 1 h to induce inflammasome activation. IL-1β release was measured in the supernatant with a Luminex Immunoasssay specific for porcine IL-1β (EPX01A-66048-901, ProcartaTM Simplex, eBioscience, ThermoFisher, San Diego, CA, USA).
In short, porcine peripheral blood mononuclear cells (PBMCs) were isolated from healthy porcine animals using Ficoll density-gradient centrifugation. Whole blood samples and isolated PBMCs were stimulated with lipopolysaccharide (LPS) (1 µg/mL, L4516, Sigma-Aldrich, St. Louis, MO, USA) and increasing concentrations of IZD334 (top concentration of 10 µM with an 8-point half-log dilution). […] IL-1β release was measured in the supernatant with a Luminex Immunoasssay specific for porcine IL-1β (ProcartaTM Simplex, eBioscience, San Diego, CA, USA).

[4] = then 1 mg/kg oral once daily, n = 6
[5] = then 3 mg/kg oral once daily, n = 7
[6] = then 10 mg/kg oral once daily, n = 7
[7] = infarct tissue, 7 days after MI
[8] = myocardial tissue, 7 days after MI
[9] = then 3 mg/kg oral once daily, n = 6

## CCN1CCC(S(=O)(=O)[N-]C(=O)Nc2c3c(cc4c2CCC4)CCC3)CC1.[K+] [IZD334]
[1]; [4]
  EDV: 150 ± 26 mL and 149.6 ± 26.2 mL
  EF%: 49.9 ± 6.1%
  ESV: 72 ± 19 mL and 71.5 ± 18.7 mL
[1]; [5]
  EDV: 151 ± 8 mL and 151.4 ± 7.6 mL
  EF%: 42.7 ± 3.8%
  ESV: 87 ± 8 mL and 86.8 ± 8.2 mL
[1]; [6]
  EDV: 144 ± 22 mL and 144.0 ± 22.0 mL
  EF%: 44.9 ± 6.4%
  ESV: 80 ± 19 mL and 80.0 ± 18.9 mL
[2]; any time point during 7-day follow-up
  CRP levels versus placebo: No significant difference
[2]; 7-day follow-up
  Systemic troponin I levels versus placebo: trends were similar between the treatment groups
[2]; circulating, 7-day follow-up
  Total leukocyte numbers versus placebo: did not differ between groups
  neutrophil counts versus placebo: did not differ between groups
[2]; infarct and border zone, 7 days after MI
  Intra-myocardial IL-1β levels versus placebo: without any difference among treatment arms
[2]; [7]
  collagen formation (histology) versus placebo: no differences between the groups
  total myocardial immune cell infiltration (histology) versus placebo: no differences between the groups
[2]; [8]
  monocyte infiltration (histology) versus placebo: no differences between the groups
  neutrophil infiltration (histology) versus placebo: no differences between the groups
[3]; [4]
  AAR/LV ± SD: 23.5 ± 3.2%
  IS/AAR ± SD: 75.5 ± 7.3% and 75.5%
  IS/LV ± SD: 17.7 ± 6.3%
[3]; [9]
  AAR/LV ± SD: 26.0 ± 1.9%
  IS/AAR ± SD: 80.3 ± 3.9%
[3]; [5]
  IS/LV ± SD: 20.5 ± 2.2%
[3]; [6]
  AAR/LV ± SD: 26.4 ± 6.6%
  IS/AAR ± SD: 78.2 ± 8.0% and 78.2%
  IS/LV ± SD: 19.3 ± 2.9%
NLRP3-inflammasome
  IL-1β release: dose-dependently reduced IL-1β release
